Consider four molecules from patent US9845471B2, “Compositions and methods for treating pancreatic cancer” (Fred Hutchinson Cancer Research Center, priority 2013, dated 2017).

Data set [1] relates to Runx3. The data set is described as follows: Runx3 immunoblot after histone deacetylase inhibitor treatment. The class given is cell-based, murine. Conditions: KPD carcinoma cells; TSA at 0, 10, or 40 μM; 48 hours of treatment. As for the experimental part:
To directly test of this potential involvement of Hdac5 in the post-translational control mechanism of Runx3, a histone deacetylase inhibitor was used to determine whether Runx3 levels increased when deacetylation of Runx3 by Hdac5 was minimized or abrogated (i.e., whether the acetylation level of Runx3 does in fact affect physiologic degradation). Briefly, cells (4×10^5) were plated in 60 cc dishes and trichostatin A (TSA) (Tocris Biosciences, MO, USA), an Hdac5 inhibitor, was added at 0, 10, or 40 μM at 24 hours. Total RNA or whole cell lysates were prepared as described herein after 48 hours of treatment, and the latter resolved on 4-12% Bis-Tris gels, transferred to PVDF and probed with Runx3 antibody.

Another data set relates to KP cells. The data set is described as follows: Tail vein pulmonary metastasis assay in nude mice, KP cells. The class given is in vivo, nude mice (Athymic NCr-nu/nu). Conditions: KP cells with Dpc4 extinguished, tail vein injection. As for the experimental part:
(§1) Purified KP and KPD carcinoma cells were also injected into the circulation of immunocompromised mice and scored for their ability to form pulmonary metastases. Briefly, murine cells were studied in a classical tail vein metastasis assay in nude mice (Athymic NCr-nu/nu). At least 3 animals were injected (1×10^5 or 1×10^6 cells/injection, depending on the experiment) for each independently derived cell line and all experiments were performed at least twice. […] Metastatic disease burdens were assessed as a ratio of cross-sectional area occupied by tumor to whole lung area using ImageJ software (NIH).
(§2) Dpc4 expression was knocked down using a short hairpin RNA (shRNA) sequence (GAUUAACACUGCAGAGUAA, SEQ ID NO.: 19) targeting murine DPC4 procured in a pGIPZ vector (Open Biosystems). A control sequence (scrambled, scr) was used as a negative control. High-titer lentivirus was made and PDA cells were infected and selected for stable expression of the DPC4-specific shRNA. Knockdown was confirmed by qRT-PCR. […] DPC4 transcript levels in murine cell lines were analyzed by qRT-PCR using the Taq-man assay per the manufacturer's recommendations (Applied Biosystems, CA, USA) with GAPHD as an internal control.

Data set [2] concerns KPD primary carcinoma cells. The data set is described as follows: Scratch wound migration assay, KPD. In kind it is cell-based, murine. As for the experimental part: (§3) In addition to examining EMT, carcinoma cells were examined for their ability to migrate. For migration assays, cells were first incubated in the presence or absence of TGFβ (5 ng/ml) for 60 hours to achieve growth arrest (in order to separate out effects of proliferation rather than migration; see Izeradjene et al., 2007), then serum starved for 8 hours. Confluent cultures were scratched with a 20 μl pipette tip to generate a wound in three horizontal stripes per well; each experimental condition was performed in triplicate wells. All experiments were conducted in triplicate at least 3 independent times on at least 2 different cell lines from each genetic background. A minimum of six points across each wound were assessed independently by two investigators at the indicated time intervals for the presence of cells within the expanse. Representative photographs were taken from a minimum of 6-8 separate high power fields. […]
(§4) Dpc4 expression was knocked down using a short hairpin RNA (shRNA) sequence (GAUUAACACUGCAGAGUAA, SEQ ID NO.: 19) targeting murine DPC4 procured in a pGIPZ vector (Open Biosystems). […] DPC4 transcript levels in murine cell lines were analyzed by qRT-PCR using the Taq-man assay per the manufacturer's recommendations (Applied Biosystems, CA, USA) with GAPHD as an internal control.

The test system of data set [3] is KPD cells. Kind of data set: Tail vein pulmonary metastasis assay in nude mice, KPD cells. The class given is in vivo, nude mice (Athymic NCr-nu/nu). The following applies: KPD cells with complete knockdown of Dpc4, tail vein injection. As for the experimental part: as §1, §2
A further data set has as its system KP PDA cells. Kind of data set: EMT immunofluorescence (actin stress fibers, E-cadherin), KP. In kind it is cell-based, murine.
The subject of the next data set is KPD PDA cells. Kind of data set: EMT immunofluorescence (actin stress fibers, E-cadherin), KPD. In kind it is cell-based, murine. As for the experimental part:
First, KPD pancreas cancer cells were probed by immunofluorescence for their ability to undergo epithelial-to-mesenchymal transition (EMT), a program of morphological and molecular changes implicated in the metastatic phenotype. Briefly, cells were grown on glass cover slips and treated for 72 hours in the presence or absence of TGFβ (5 ng/ml); media was replaced every 24 hours. For E-cadherin immunofluorescence, cells were fixed in ice cold methanol:acetone (1:1) for 15 minutes. For F-actin IF, cells were fixed in 4% paraformaldehyde for 30 minutes at RT followed by brief rinse in 0.15M glycine to quench the PFA. After fixation, the cells were washed with PBS and blocked for 1 hour at RT with 2% fatty acid-free BSA/2.5% goat serum. Cells were incubated with E-cadherin primary antibody (1:200, BD Biosciences) or Alexafluor488 F-actin (1:1000) for 1 hour at RT. Alexafluor 488 secondary antibody was used to visualize E-cadherin antibody. Cells were counterstained with DAPI and the slips mounted with Prolong Gold Anti-fade (Invitrogen, CA, USA). Images were acquired using a Nikon Eclipse 80i microscope with NIS Elements Software (Nikon, v3.1).

Data set [4] deals with Runx3. Kind of data set: Runx3 immunoblot after targeted depletion of Smad4. The class given is cell-based, murine. The following applies: KPD cells; converse of the increase seen with Smad4 over-expression. As for the experimental part: For immunoblot analysis, whole cell lysates were prepared using 1×RIPA buffer (Millipore, CA, USA) supplemented with 1×protease inhibitor (Sigma, MO, USA) and phosphotase inhibitor cocktails I and II (Sigma, MO, USA). For immunoblot experiments, 20 μg (murine) or 30 μg (human) whole cell protein lysate were separated on a 4-12% Bis-tris gel system (Invitrogen, CA, USA) and transferred to PVDF membrane (Millipore, CA, USA). Primary antibodies used were Dpc4, p16, p19, Actin (all at 1:2000, Santa Cruz, Calif., USA), and p53 (1:1000, Vector Lab, CA, USA).
as §2, with “qRT-PCR. Briefly, total RNA was reverse transcribed using the high capacity cDNA synthesis kit (Applied Biosystems, CA, USA) and qRT-PCR performed using SYBER green supermix (Bio-Rad, VA, USA) on a CFX-96 thermal cycler.” for “qRT-PCR.”

In data set [5] the test system is KP primary carcinoma cells. Kind of data set: Scratch wound migration assay, KP. In kind it is cell-based, murine. As for the experimental part:
as §3, §4

In data set [6] the test system is Panc-1 cells. Kind of data set: Scratch wound migration assay, Panc-1. The class given is cell-based, human. As for the experimental part:
(§5) In addition to examining EMT, carcinoma cells were examined for their ability to migrate. For migration assays, cells were first incubated in the presence or absence of TGFβ (5 ng/ml) for 60 hours to achieve growth arrest (in order to separate out effects of proliferation rather than migration; see Izeradjene et al., 2007), then serum starved for 8 hours. Confluent cultures were scratched with a 20 μl pipette tip to generate a wound in three horizontal stripes per well; each experimental condition was performed in triplicate wells. All experiments were conducted in triplicate at least 3 independent times on at least 2 different cell lines from each genetic background. A minimum of six points across each wound were assessed independently by two investigators at the indicated time intervals for the presence of cells within the expanse. Representative photographs were taken from a minimum of 6-8 separate high power fields. For all assays, media was replaced every 24 hours with or without TGFβ and photographed every 24 hours.
(§6) As an initial analysis, the human pancreas cancer cell lines were tested in the scratch wound migration assay described herein. The basal levels of RUNX3 in these human PDA cell lines correlated with their migratory potential, as MiaPaCa-2 cells migrated far less well than CFPAC-1 and Panc-1 cells (FIG. 9B). […]

Another data set has as its system CFPAC-1 cells. Kind of data set: Scratch wound migration assay, CFPAC-1. In kind it is cell-based, human. Conditions: CFPAC1 cells. As for the experimental part: as §5, §6
The test system of data set [7] is Panc-1 cells. The data set is described as follows: Pulmonary metastasis assay in NOD/SCID mice. The class given is in vivo. As for the experimental part: as §1
(§7) Human RUNX3 was cloned into pBABE hygromycin vector and stable RUNX3 expressing HEK293T cells were prepared using a similar protocol to that used to make the murine version. Also, shRNA sequences targeting human RUNX3 to knock down expression were procured in pGIPZ vectors (Open Biosystems). High-titer lentivirus was made and PDA cells were infected and selected for stable expression of the […] shRNA (SEQ ID NO.: 20, CGGCAGAAGCUGGAGGACC). Knockdown was confirmed by qRT-PCR.
To determine whether overexpression of RUNX3 in human PDA cells also promotes metastasis, pulmonary metastasis assays were performed using NOD/SCID mice.

In another data set the test system is COL6A1. Kind of data set: COL6A1 expression by qRT-PCR. The class given is cell-based, human. Conditions: shRUNX3 transfected Panc-1 cells vs scrambled. As for the experimental part:
as §7
Transcript levels in Runx3-overexpressing carcinoma cells were determined using qRT-PCR as described herein. The Spp1 mouse forward and reverse primers used were SEQ ID NO.:5 ([…]) and SEQ ID NO.:6 ([…]), respectively; the Col6A1 mouse forward and reverse primers were SEQ ID NO.:7 (CTGCTGCTACAAGCCTGCT) and SEQ ID NO.:8 (CTGCTGCTACAAGCCTGCT), respectively; and the COL6A1 human forward and reverse primers were SEQ ID NO.:9 ([…]) and SEQ ID NO.:10 ([…]), respectively.

The test system of data set [8] is Runx3 complexes with Smad2 and Smad4. Kind of data set: Smad2 immunoprecipitation of Runx3 complexes, KP. The class given is cell-based, murine. Conditions: KP cells, incubated with TGFβ prior to lysis. As for the experimental part: (§8) To examine whether the transcriptional activity of Runx3 was exercised in complex with Smad4/Dpc4, immunoprecipitation assays were performed. Briefly, cells were lysed by sonication in 20 mM HEPES (pH 7.5), 400 mM KCl, 5% Glycerol, 5 mM EDTA, 0.4% Np40, supplemented with 1×protease inhibitor (Sigma, MO, USA), phosphotase inhibitor cocktails I and II (Sigma, MO, USA), and the lysates cleared by centrifugation. Extracts were diluted to 20 mM HEPES (pH 7.8), 50 mM KCl, 5% Glycerol, 2.5 mM MgCl2, 0.05% NP40 and incubated with Smad2 antibody (2.5 μg/ml from AbCam, Cambridge Mass., USA) and Protein A-Sepharose beads for 4 hours at 4° C. Beads were washed and co-purified proteins liberated in boiling Laemmli buffer and analyzed by immunoblot with the appropriate primary antibody. ExactaCruz secondary antibodies (Santa Cruz biotechnology) were used to reduce background from IgG.

For data set [9] the test system is unchanged. The data set is described as follows: Smad2 immunoprecipitation of Runx3 complexes, KPD. Conditions: KPD cells, incubated with TGFβ prior to lysis. The class given is cell-based, murine. As for the experimental part:
as §8

The test system of a further data set is MiaPaCa-2 cells. Kind of data set: Scratch wound migration assay, MiaPaCa-2. In kind it is cell-based, human. Conditions: TGFβ. As for the experimental part:
as §5, §6

Data set [10] concerns KPD cells. Kind of data set: Cell proliferation assay. In kind it is cell-based, murine. Conditions: TGFβ 5 ng/ml. As for the experimental part: For immunocytochemistry, the primary antibody used was Ki-67 (1:25, Dako, Calif., USA), which is a marker of proliferating cells. For cell proliferation assays, equal numbers of murine or human cells (30,000) were plated in triplicate for each cell line and incubated in the presence or absence of TGFβ (5 ng/ml, R&D Systems, USA). Cells were counted manually at 24 hour intervals. Data points represent the mean±SEM of triplicate determinations from at least 3 independent experiments. All experiments were conducted in triplicate at least 3 independent times on at least 2 different cell lines from each genetic background. Representative photographs were taken from a minimum of 6-8 separate high power fields. For all assays, media was replaced every 24 hours with or without TGFβ and photographed every 24 hours.

Regarding `CC(/C=C/C(=O)NO)=C\[C@@H](C)C(=O)c1ccc(N(C)C)cc1` [TSA, trichostatin A], in the data set with Runx3 [1], the “levels of Runx3 (immunoblot)” value is recorded as “raise levels of Runx3 to approximately those found in KP cells”.

On to “shDpc4: short hairpin RNA (GAUUAACACUGCAGAGUAA, SEQ ID NO.: 19) targeting murine DPC4 in a pGIPZ vector”, for which the results for the metastatic potential entry in the data set with KP cells and with KPD cells [3] were “did not diminish their already considerable metastatic potential” and “enhanced their metastatic potential”, respectively. Further, the basal migratory behavior entry in [2] (complete ablation of Dpc4 expression by shRNA) is reported as “increased their basal migratory behavior modestly”. Moreover, the “EMT in response to TGFβ” value in the data set with KP PDA cells (late ablation of Dpc4 by shRNA) is on record as “did not completely prevent EMT”; in the data set on KPD PDA cells (KPD carcinoma cells, complete loss of Dpc4 expression by shRNA), “some morphological features of EMT in response to TGFβ also persisted”. Also, the “Runx3 levels (immunoblot)” value in the data set with Runx3 [4] was “had the converse effect”. For the same molecule, the migration result in data set [5] (Dpc4 depleted by shRNA) was “migration increased slightly”.

Regarding “shRUNX3: shRNA targeting human RUNX3 (SEQ ID NO.: 20, CGGCAGAAGCUGGAGGACC) in pGIPZ vector, delivered by lentivirus”, the migration result in the data set with Panc-1 cells [6] (stable RUNX3-specific shRNA) and with CFPAC-1 cells (stable RUNX3-specific shRNA) was “inhibited their migration” each time. The molecule also yielded a liver weights in the data set with Panc-1 cells [7] (NOD/SCID mice injected with RUNX3 knockdown Panc-1 cells, n=3) of 0.53 ± 0.06 g. Besides, the “ability to seed and support secondary metastases to the liver” value in the data set with Panc-1 cells [7] (RUNX3-depleted Panc-1 cells in NOD/SCID mice) was “considerably decreased”. In the data set with Panc-1 cells [7] (RUNX3-knockdown vs control Panc-1 cells in NOD/SCID mice), the “number of lung metastases” value is listed as “comparable number of lung metastases”. Further, the COL6A1 transcript levels result in the data set with COL6A1 was “reduces COL6A1 transcript levels”.

Turning to TGFβ, the Runx3/Smad2/Smad4 complex formation entry in data set [8] is recorded as “favor complex formation”; in data set [9], “inhibit it”. The migration entry in data set [2] (TGFβ 5 ng/ml) was “did not respond in kind”; in the data set on Panc-1 cells [6] (TGFβ), “promoted or left unaffected”; in the data set with MiaPaCa-2 cells, “modestly inhibited the migration”; with CFPAC-1 cells (TGFβ), “promoted or left unaffected”; in data set [5] (TGFβ 5 ng/ml), “stimulated”. In addition, in the data set with KP PDA cells (TGFβ 5 ng/ml, 72 hours), the EMT result is listed as “readily underwent TGFβ-induced EMT”. Moreover, the “growth arrest (proliferation)” value with KPD cells [10] is reported as “only partially growth-arrested”. In the data set on KPD PDA cells (KPD PDA cells, TGFβ 5 ng/ml, 72 hours), the “EMT (actin stress fibers, surface E-cadherin)” value is “EMT is essentially intact”.
